# Assays:
# [1] = biological target: T1, acetylcholinesterase (AChE) (Rattus norvegicus, UniProt P37136); assay: In vitro inhibition of AChE (cholinesterase assay, Ellman method); format: biochemical
# T1 construct: from tissue; host or cells: rat brain cortex
# T1 sequence (P37136 32-614): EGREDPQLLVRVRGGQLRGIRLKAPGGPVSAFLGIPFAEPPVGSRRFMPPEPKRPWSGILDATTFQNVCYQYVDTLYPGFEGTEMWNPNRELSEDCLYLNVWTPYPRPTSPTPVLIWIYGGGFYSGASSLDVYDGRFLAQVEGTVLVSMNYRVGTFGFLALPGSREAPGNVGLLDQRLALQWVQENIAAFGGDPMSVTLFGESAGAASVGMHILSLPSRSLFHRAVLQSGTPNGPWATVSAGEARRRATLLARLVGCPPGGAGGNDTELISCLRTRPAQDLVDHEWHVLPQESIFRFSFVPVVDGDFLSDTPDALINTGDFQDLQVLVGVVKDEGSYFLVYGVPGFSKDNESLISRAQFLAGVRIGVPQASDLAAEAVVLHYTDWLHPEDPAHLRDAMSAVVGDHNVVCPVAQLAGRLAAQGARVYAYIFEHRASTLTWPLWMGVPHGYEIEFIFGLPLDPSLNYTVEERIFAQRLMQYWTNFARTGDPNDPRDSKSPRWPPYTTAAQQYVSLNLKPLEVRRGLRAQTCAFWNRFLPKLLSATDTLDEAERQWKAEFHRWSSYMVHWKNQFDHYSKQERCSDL
# Description: The in vitro inhibition of the enzymes acetylcholinesterase (AChE) and butyrylcholinesterase (BChE) were assessed. BChE, like AChE, breaks down acetylcholine (ACh) but is found in plasma and other organs such as the liver, skin and gastrointestinal tract.
# The enzymes, AChE and BChE, used in the inhibition studies were prepared from the cortex and serum of decapitated rats, respectively.
# NMDA receptor = biological target: T2, NMDA receptor (Rattus norvegicus, UniProt P35439); assay: Whole cell patch clamp, NMDA-induced current in hippocampal neurons; format: cell-based; settings: DIV10-14 rat hippocampal neurons, NMDA 50 μM, compound 10 μg/mL; FIG. 1
# T2 construct: Hippocampal neurons from embryonic day 18 rats were isolated, trypsinized, plated onto 35-mm plates; endogenous in cells; host or cells: primary hippocampal neurons from embryonic day 18 rats, DIV10-14
# Description: The NMDA receptor is a gated ion channel, which allows inflow of current during a nerve impulse. Antagonists to the receptor would prevent the inflow of current. Memantine, a known NMDA antagonist was used as the positive control.
# Hippocampal neurons from embryonic day 18 rats were isolated, trypsinized, plated onto 35-mm plates at a density of 3×10^4 cells/plate and cultured in Neurobasal medium (NB) supplemented with B27 nutrient. DIV10-14 rat hippocampal neurons were treated with NMDA (50 μM) in the absence or presence of the novel compounds (Cpd A, B and C) (10 μg/mL). Data is presented as % of NMDA-induced current. DMSO is the solvent control.
# transient focal ischemia = assay: MCAO (middle carotid artery occlusion model), transient focal ischemia; format: in vivo, mice
# Description: The MCAO (middle carotid artery occlusion model) was performed to investigate the protective effects of compounds A, B and C on the brain when the brain was exposed to transient focal ischemia (lack of oxygen), emulating brain conditions during a stroke. […] The ability of the novel compounds to protect against the appearance of these neurological deficits was examined using a four-point scale neurological scoring system (Mann Whitney U test). For each of the following observable signs, the distribution of test subjects was noted (with and without treatment with the invention after ischemia): (0) no observable neurological deficits (normal); (1) failure to extend the left forepaw fully (mild); (2) circling to the contralateral side (moderate); and (3) loss of walking and righting reflex (severe). • (ii) The brains of the test subjects slices were sectioned into five pieces and the infarct area and volume of each slice was measured. The % of infarct area in test subjects treated with the invention after ischemia was compared to that of the control group for each brain slice. • (iii) Hemispheric brain swelling and infarct volume (the area of dead tissue caused by inadequate blood supply) was measured for test subjects treated with the invention after ischemia, and compared to that of the control group.
# The compounds were administered 5 minutes after ischemia, 5 minutes after reperfusion, or 6 hours after ischemia. FIGS. 5a to 5f show results for the heterodimers compound B, C or A respectively, when administered 5 minutes after ischemia or reperfusion. FIGS. 5g and 5h show the results when the novel heterodimers were administered 6 hours after ischemia.
# Compound B was administered at 5 minutes after ischemia. Distribution of neurological scores based on a four-point scale neurological scoring system (Mann Whitney U test): (0) no observable neurological deficits (normal); (1) failure to extend the left forepaw fully (mild); (2) circling to the contralateral side (moderate); and (3) loss of walking and righting reflex (severe).
# The brain was sectioned into five pieces, each 2-mm thick. The infarct area of each posterior surface was analyzed by an image analysis program. The percentage of infarct area and volume were calculated and presented as the percentage of the infarct area of the contralateral hemisphere to eliminate the contribution of edema to the ischemic lesion.
# The infarct area of each posterior surface was analyzed by an image analysis program. Hemispheric brain swelling was calculated as follows (ipsilateral volume−contralateral volume)/contralateral volume×100%.
# [2] = 0.005 mg/kg, 5 minutes after ischemia
# [3] = 0.05 mg/kg, 5 minutes after ischemia
# [4] = 0.1 mg/kg, 5 minutes after ischemia
# [5] = 0.2 mg/kg, 5 minutes after ischemia
structure (smiles),measurement,setting,value
O=c1ccc2c([nH]1)CCC(NCCCNc1c3c(nc4cc(Cl)ccc14)CCCC3)C2 (stereo not drawn) [Compound A],times more potent than bis(7)-tacrine,[1]; AChE inhibition,~53
same,times more potent than tacrine,[1]; AChE inhibition,~200
same,Selectivity AchE*,[1]; IC50 (BChE)/IC50 (AChE),227.23
same,IC50,[1]; enzyme prepared from rat cortex,250 ± 50 pM
same,NMDA-induced current,NMDA receptor,decreased NMDA-induced current in hippocampal neurons
same,% Infarct area in brain slice # 1,transient focal ischemia; [2],2.2 ± 2.0%
same,% Infarct area in brain slice # 2,transient focal ischemia; [2],48.8 ± 4.3%
same,% Infarct area in brain slice # 3,transient focal ischemia; [2],49.3 ± 4.4%
same,% Infarct area in brain slice # 4,transient focal ischemia; [2],26.5 ± 9.3%
same,% Infarct area in brain slice # 5,transient focal ischemia; [2],−4.3 ± 0.6%
same,Hemispheric swelling (%),transient focal ischemia; [2],10.3 ± 0.4%
same,Infarct volume (%),transient focal ischemia; [2],31.3 ± 4.3%
same,Observed Neurological Deficits Mean ± SEM,transient focal ischemia; [2],1.6 ± 0.2
same,"Observed Neurological Deficits, score 0 (number of animals)",transient focal ischemia; [2],0
same,"Observed Neurological Deficits, score 1 (number of animals)",transient focal ischemia; [2],2
same,"Observed Neurological Deficits, score 2 (number of animals)",transient focal ischemia; [2],3
same,"Observed Neurological Deficits, score 3 (number of animals)",transient focal ischemia; [2],0
same,n (dead/total): dead/total,transient focal ischemia; [2],5 (5/10)
same,% Infarct area in brain slice # 1,transient focal ischemia; [3],−0.4 ± 2.2%
same,% Infarct area in brain slice # 2,transient focal ischemia; [3],39.1 ± 2.4 %
same,% Infarct area in brain slice # 3,transient focal ischemia; [3],44.5 ± 0.9 %
same,% Infarct area in brain slice # 4,transient focal ischemia; [3],17.1 ± 3.2 %
same,% Infarct area in brain slice # 5,transient focal ischemia; [3],−6.3 ± 2.8%
same,Hemispheric swelling (%),transient focal ischemia; [3],15.5 ± 1.1%
same,Infarct volume (%),transient focal ischemia; [3],24.8 ± 1.1 %
same,Observed Neurological Deficits Mean ± SEM,transient focal ischemia; [3],1.2 ± 0.2
same,"Observed Neurological Deficits, score 0 (number of animals)",transient focal ischemia; [3],0
same,"Observed Neurological Deficits, score 1 (number of animals)",transient focal ischemia; [3],5
same,"Observed Neurological Deficits, score 2 (number of animals)",transient focal ischemia; [3],1
same,"Observed Neurological Deficits, score 3 (number of animals)",transient focal ischemia; [3],0
same,n (dead/total): dead/total,transient focal ischemia; [3],6 (1/7)
same,% Infarct area in brain slice # 1,transient focal ischemia; [4],2.0 ± 1.8%
same,% Infarct area in brain slice # 2,transient focal ischemia; [4],49.5 ± 2.0 %
same,% Infarct area in brain slice # 3,transient focal ischemia; [4],48.4 ± 1.8 %
same,% Infarct area in brain slice # 4,transient focal ischemia; [4],10.4 ± 3.3 %
same,% Infarct area in brain slice # 5,transient focal ischemia; [4],−9.9 ± 1.7%
same,Hemispheric swelling (%),transient focal ischemia; [4],12.5 ± 1.1%
same,Infarct volume (%),transient focal ischemia; [4],26.5 ± 1.4 %
same,Observed Neurological Deficits Mean ± SEM,transient focal ischemia; [4],1.2 ± 0.1
same,"Observed Neurological Deficits, score 0 (number of animals)",transient focal ischemia; [4],0
same,"Observed Neurological Deficits, score 1 (number of animals)",transient focal ischemia; [4],7
same,"Observed Neurological Deficits, score 2 (number of animals)",transient focal ischemia; [4],2
same,"Observed Neurological Deficits, score 3 (number of animals)",transient focal ischemia; [4],0
same,n (dead/total): dead/total,transient focal ischemia; [4],9 (4/13)
same,% Infarct area in brain slice # 1,transient focal ischemia; [5],1.3 ± 0.7%
same,% Infarct area in brain slice # 2,transient focal ischemia; [5],44.7 ± 6.6%
same,% Infarct area in brain slice # 3,transient focal ischemia; [5],49.0 ± 3.8%
same,% Infarct area in brain slice # 4,transient focal ischemia; [5],37.3 ± 3.8%
same,% Infarct area in brain slice # 5,transient focal ischemia; [5],−3.3 ± 1.6%
same,Hemispheric swelling (%),transient focal ischemia; [5],15.2 ± 1.2%
same,Infarct volume (%),transient focal ischemia; [5],33.8 ± 1.6%
same,Observed Neurological Deficits Mean ± SEM,transient focal ischemia; [5],1.9 ± 0.7
same,"Observed Neurological Deficits, score 0 (number of animals)",transient focal ischemia; [5],0
same,"Observed Neurological Deficits, score 1 (number of animals)",transient focal ischemia; [5],2
same,"Observed Neurological Deficits, score 2 (number of animals)",transient focal ischemia; [5],4
same,"Observed Neurological Deficits, score 3 (number of animals)",transient focal ischemia; [5],1
same,n (dead/total): dead/total,transient focal ischemia; [5],7 (4/11)
same,infarct area (in words),"transient focal ischemia; 0.05 and 0.1 mg/kg, 5 minutes after ischemia, FIG. 5e",improvement in the infarct area
same,infarct volume and hemispheric swelling (in words),"transient focal ischemia; 5 minutes after ischemia (compound A: 0.05 and 0.1 mg/kg), FIG. 5b, 5f",decreases infarct volume but not hemispheric swelling
same,neurological deficits induced by ischemia (in words),transient focal ischemia; administered 5 minutes after ischemia,reduced neurological deficits induced by ischemia

# Reference: patent publication US7605265B2, “Heterodimers and methods of using them” (priority 2007, dated 2009)
